Experiments:
Mouse B16 melanoma cells [1] = assay: Cell proliferation test (cytotoxicity test, Alamar Blue); type: cell-based; conditions: 3 days, ratio to solvent-only group
Experimental: (§1) The melanin production inhibitory effect and the cytotoxicity was studied according to the following method.
(§2) (1) Inoculation of Cells and Addition of Test Substances
(§3) Mouse B16 melanoma cells were inoculated in a six well plate at 100,000 cells/well. The next day, test substance solutions (solvent: dimethylsulfoxide) were added thereto and then subjected to the melanin production inhibition test and cytotoxicity test.
(2) Cell Proliferation Test
Three days after the addition of the test substance solution, the medium was removed by aspiration. Then 1 mL of EMEM medium containing 10% Alamar Blue solution was added, and a reaction was allowed to proceed at 37° C. After 30 minutes, 100 μL of the reaction mixture was transferred to a 96 well plate and fluorescence was measured at an excitation wavelength of 544 nm and a measurement wavelength of 590 nm. Using the value thus measured as a relative value of cell count, a ratio of the cell count (% cell count) of the test substance-added group to the test substance-absent group (group in which only the solvent was added) was calculated. The higher the % cell count, the lower the cytotoxicity.

Mouse B16 melanoma cells [2] = assay: Melanin production inhibition test; type: cell-based; conditions: 3 days, ratio to solvent-only group
Experimental: as §1, §2, §3
(3) Melanin Production Inhibition Test
Three days after the addition of the test substance solution, the medium was removed by aspiration. The cells were washed with a buffer (50 mM phosphate buffer, pH6.8), and then lysed by addition of 1M NaOH to measure an absorbance at 475 nm. Using the value thus measured as a relative value of the melanin amount, a ratio of the melanin amount (%) of the test substance-added group to the test substance-absent group (group in which only the solvent was added) was calculated. The lower the ratio of the melanin amount, the higher the melanin production-inhibitory effect.

[3] = final concentration of test compound 2.2 μM
[4] = final concentration of test compound 22 μM
[5] = final concentration of test compound 220 μM
[6] = final concentration of test compound 2.0 μM
[7] = final concentration of test compound 6.6 μM
[8] = final concentration of test compound 66 μM
[9] = final concentration of test compound 1.6 μM
[10] = final concentration of test compound 16 μM
[11] = final concentration of test compound 52 μM
[12] = final concentration of test compound 1.0 μM
[13] = final concentration of test compound 10 μM
[14] = final concentration of test compound 33 μM
[15] = final concentration of test compound 9.6 μM
[16] = final concentration of test compound 32 μM
[17] = final concentration of test compound 0.9 μM
[18] = final concentration of test compound 8.5 μM
[19] = final concentration of test compound 28 μM

With CCc1ccc(O)cc1O [Comparative Compound 1, 4-ethylresorcinol] the “Cell Count (%)” value (Mouse B16 melanoma cells [1]; [3]) was 101%, the “Cell Count (%)” value (Mouse B16 melanoma cells [1]; [4]) was 102% and the “Cell Count (%)” value (Mouse B16 melanoma cells [1]; [5]) was 93%. For the same molecule, the “Melanin Amount Ratio (%)” value (Mouse B16 melanoma cells [2]; [3]) was 69%, the “Melanin Amount Ratio (%)” value (Mouse B16 melanoma cells [2]; [4]) was 24% and the “Melanin Amount Ratio (%)” value (Mouse B16 melanoma cells [2]; [5]) was 16%.
In the case of CC(C)c1ccc(O)cc1O [Comparative Compound 2, 4-isopropylresorcinol], the “Cell Count (%)” value (Mouse B16 melanoma cells [1]; [6]) is reported as 99%, the “Cell Count (%)” value (Mouse B16 melanoma cells [1]; [7]) is reported as 97% and the “Cell Count (%)” value (Mouse B16 melanoma cells [1]; [8]) is reported as 98%. For the same molecule, the “Melanin Amount Ratio (%)” value (Mouse B16 melanoma cells [2]; [6]) was 32%, the “Melanin Amount Ratio (%)” value (Mouse B16 melanoma cells [2]; [7]) was 17% and the “Melanin Amount Ratio (%)” value (Mouse B16 melanoma cells [2]; [8]) was 12%.
Oc1ccc(C2CCCCC2)c(O)c1 [Comparative Compound 3, 4-cyclohexylresorcinol] was tested, and the “Cell Count (%)” value (Mouse B16 melanoma cells [1]; [9]) was 99%, the “Cell Count (%)” value (Mouse B16 melanoma cells [1]; [10]) was 98% and the “Cell Count (%)” value (Mouse B16 melanoma cells [1]; [11]) was 76%. For the same molecule, the “Melanin Amount Ratio (%)” value (Mouse B16 melanoma cells [2]; [9]) was 43%, the “Melanin Amount Ratio (%)” value (Mouse B16 melanoma cells [2]; [10]) was 22% and the “Melanin Amount Ratio (%)” value (Mouse B16 melanoma cells [2]; [11]) was 17%.
With CCc1ccc(OP(=O)(O)O)cc1OP(=O)(O)O [Compound 1, 1,3-bisphosphonooxy-4-ethylbenzene] the “Cell Count (%)” value (Mouse B16 melanoma cells [1]; [12]) was 101%, the “Cell Count (%)” value (Mouse B16 melanoma cells [1]; [13]) was 108% and the “Cell Count (%)” value (Mouse B16 melanoma cells [1]; [14]) was 113%. The “Melanin Amount Ratio (%)” value (Mouse B16 melanoma cells [2]; [12]) was 62%, the “Melanin Amount Ratio (%)” value (Mouse B16 melanoma cells [2]; [13]) was 25% and the “Melanin Amount Ratio (%)” value (Mouse B16 melanoma cells [2]; [14]) was 16%.
In the case of CC(C)c1ccc(OP(=O)(O)O)cc1OP(=O)(O)O [Compound 2, 1,3-bisphosphonooxy-4-isopropylbenzene], the “Cell Count (%)” value (Mouse B16 melanoma cells [1]; [12]) is reported as 99%, the “Cell Count (%)” value (Mouse B16 melanoma cells [1]; [15]) is reported as 95% and the “Cell Count (%)” value (Mouse B16 melanoma cells [1]; [16]) is reported as 103%. For the same molecule, the “Melanin Amount Ratio (%)” value (Mouse B16 melanoma cells [2]; [12]) was 47%, the “Melanin Amount Ratio (%)” value (Mouse B16 melanoma cells [2]; [15]) was 16% and the “Melanin Amount Ratio (%)” value (Mouse B16 melanoma cells [2]; [16]) was 13%.
O=P(O)(O)Oc1ccc(C2CCCCC2)c(OP(=O)(O)O)c1 [Compound 3, 1,3-bisphosphonooxy-4-cyclohexylbenzene] was tested, and the “Cell Count (%)” value (Mouse B16 melanoma cells [1]; [17]) was 102%, the “Cell Count (%)” value (Mouse B16 melanoma cells [1]; [18]) was 105% and the “Cell Count (%)” value (Mouse B16 melanoma cells [1]; [19]) was 101%. For the same molecule, the “Melanin Amount Ratio (%)” value (Mouse B16 melanoma cells [2]; [17]) was 48%, the “Melanin Amount Ratio (%)” value (Mouse B16 melanoma cells [2]; [18]) was 20% and the “Melanin Amount Ratio (%)” value (Mouse B16 melanoma cells [2]; [19]) was 15%.

Reference: US8486919B2, “4-alkylresorcinol derivative and external preparation for skin containing the same” (Shiseido Company, Ltd., priority 2010, dated 2013)
